Converted amounts (≈) assume the structure as drawn. Like-named read-outs stand apart in the source and are kept apart here. Numbered stars: 1 amine (or outer) side, 2 acyl side, 3 side chain; on linkers, the order of the positions; unused ones are H or OH. Bridge positions count the residues as written; N and C are the ends. Square brackets hold non-standard residues; d marks the D form. Peptide text beside a SMILES is read from it. * marks the point of attachment. X6 = O=C([C@@H]1CS(=O)(=O)CCN1[*:1])[*:2]; Phe(3-Me) = Cc1cccc(C[C@H](N)C(=O)O)c1; Pro(4S-Me) = C[C@@H]1CN[C@H](C(=O)O)C1; NH(4-Cl-2-F-phenyl) = Fc1cc(Cl)ccc1N*; Pro(4R-Me) = C[C@H]1CN[C@H](C(=O)O)C1; Propanoyl(3-NMe2) = CN(C)CCC(=O)*; X1 = O=C([C@@H]1CSCCN1[*:1])[*:2]; Hyp = O=C(O)[C@@H]1C[C@@H](O)CN1; NH(4-Me-phenyl) = Cc1ccc(N*)cc1; aThr = C[C@H](O)[C@H](N)C(=O)O; Pip = O=C(O)[C@@H]1CCCCN1; CO = O=C([*:1])[*:2]; X2 = Fc1cc(N*)ccc1Cl
Assays:
Plasma stability assay [1] = assay type: in vitro ADME, mouse
Method in brief: (§1)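 Compounds at 10 μM final in human or mouse plasma, incubated at 37 °C and sampled at 0, 3, 24 and 48 h in triplicate. Reactions quenched with cold acetonitrile containing warfarin internal standard; parent measured by LC-MS. Half-life from least-squares first-order fit.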

Plasma stability assay [2] = assay type: in vitro ADME, human
Method in brief: as §1

[3] = Plasma protein binding, rapid equilibrium dialysis; assay type: in vitro ADME, human; conditions: 10 μM
Method in brief: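 Compound spiked at 10 μM (0.1% DMSO) into human plasma, dialysed against DPBS pH 7.4 across 8 K MWCO RED membrane for 4 h at 37 °C with shaking. Both chambers quantified by LC-MS against warfarin internal standard; % free = buffer/plasma concentration ×100, % bound = 100 − % free.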

[4] = Plasma protein binding, rapid equilibrium dialysis; assay type: in vitro ADME, mouse
E. faecails = test: Minimal inhibitory concentration, microbroth dilution; assay type: cell-based; conditions: Enterococcus faecalis
Method in brief: (§2)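 MICs were determined by CLSI broth microdilution, using two-fold compound dilutions from a final 200 μM and about 10^5 cfu/mL inoculum. Plates were incubated aerobically at 37 °C overnight. The MIC was read visually as the lowest concentration preventing growth.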

MRSA NRS70 = test: as above; assay type: cell-based; conditions: Staphylococcus aureus
Method in brief: as §2

S. aureus ATCC 29213 = test: as above; assay type: cell-based; conditions: Staphylococcus aureus
Method in brief: as §2

S. aureus USA 300 = test: as above; assay type: cell-based; conditions: Staphylococcus aureus
Method in brief: as §2

[5] = MIC, read-out: Minimal Inhibitory Concentrations (μM) E. faecails
[6] = MIC, read-out: Minimal Inhibitory Concentrations (μM) MRSA NRS70
[7] = ATCC29213, MIC, read-out: Minimal Inhibitory Concentrations (μM) S. aureus ATCC 29213
[8] = USA300, MIC, read-out: Minimal Inhibitory Concentrations (μM) S. aureus USA 300
[9] = plasma stability half-life, mouse plasma, 37° C.
[10] = plasma stability half-life, human plasma, 37° C.
[11] = plasma binding, % Bound, human plasma
[12] = plasma binding, % Bound, mouse plasma
[13] = read-out: Minimal Inhibitory Concentrations (μM) E. faecails, MIC
[14] = read-out: Minimal Inhibitory Concentrations (μM) MRSA NRS70, MIC
[15] = ATCC29213, read-out: Minimal Inhibitory Concentrations (μM) S. aureus ATCC 29213, MIC
[16] = USA300, read-out: Minimal Inhibitory Concentrations (μM) S. aureus USA 300, MIC

Row | Compound | Mouse (Plasma stability assay [1]; mouse, 10 μM) | Human (Plasma stability assay [2]; human, 10 μM) | Human ([3]; human, 4 h, pH 7.4) | Mouse ([4]; mouse, 4 h, 10 μM, pH 7.4) | MIC (E. faecails; [5]) | MIC (MRSA NRS70; [6]) | MIC (S. aureus ATCC 29213; [7]) | MIC (S. aureus USA 300; [8]) | Mouse (Plasma stability assay [1]; [9]) | Human (Plasma stability assay [2]; [10]) | Human [3, 11] | Mouse [4, 12] | MIC (E. faecails; [13]) | MIC (MRSA NRS70; [14]) | MIC (S. aureus ATCC 29213; [15]) | MIC (S. aureus USA 300; [16])
1 | Cc1cccc(C[C@H](NC(=O)Nc2ccc(Cl)c(F)c2)C(=O)N[C@@H]2C(=O)N3CCC[C@H]3C(=O)N3CCCC[C@H]3C(=O)N[C@@H](C)C(=O)N3C[C@H](C)C[C@H]3C(=O)O[C@H]2C)c1 [Compound 35, (S)-2-(3-(4-CHLORO-3-FLUOROPHENYL)UREIDO)-3-(M-TOLYL)-N-((2R,6S,8AS,14AS,20S,21S,23AS)-2,6,21-TRIMETHYL-5,8,14,19,23-PENTAOXOOCTADECAHYDRO-1H,5H,14H,19H-PYRIDO[2,1-I]DIPYRROLO[2,1-C:2′,1′-L][1]OXA[4,7,10,13]TETRAAZACYCLOHEXADECIN-20-YL)PROPANAMIDE] ({X2-CO}-[Phe(3-Me)][aThr]P[Pip]A[Pro(4R-Me)]; ester 2-C) | >50 h | >50 h | 99.9 ± 9.9% | 99.7 ± 9.7% | 1.25 µM (≈ 1.03 µg/mL) | 0.313 µM (≈ 0.258 µg/mL) | 0.625 µM (≈ 0.515 µg/mL) | 0.625 µM (≈ 0.515 µg/mL) |  |  |  |  |  |  |  | 
2 | Cc1cccc(C[C@H](NC(=O)Nc2ccc(Cl)cc2F)C(=O)N[C@@H]2C(=O)N3CCC[C@H]3C(=O)N3CCSC[C@H]3C(=O)N[C@@H](C)C(=O)N3C[C@H](C)C[C@H]3C(=O)O[C@H]2C)c1 [Compound 38, (S)-2-(3-(4-CHLORO-2-FLUOROPHENYL)UREIDO)-3-(M-TOLYL)-N-((6AS,12S,13S,15AS,17R,21S,23AR)-13,17,21-TRIMETHYL-6,11,15,20,23-PENTAOXOOCTADECAHYDRO-6H,11H,15H-DIPYRROLO[2,1-C:2′,1′-L][1,4]THIAZINO[3,4-I][1]OXA[4,7,10,13]TETRAAZACYCLOHEXADECIN-12-YL)PROPANAMIDE] ({NH(4-Cl-2-F-phenyl)-CO}-[Phe(3-Me)][aThr]P[X1]A[Pro(4R-Me)]; ester 2-C) | >50 h | >50 h | 99.5 ± 9.5% | 96.0 ± 6.0% | 0.078 µM (≈ 0.0657 µg/mL) | 0.039 µM (≈ 0.0329 µg/mL) | 0.039 µM (≈ 0.0329 µg/mL) | 0.078 µM (≈ 0.0657 µg/mL) |  |  |  |  |  |  |  | 
3 | Cc1cccc(C[C@H](NC(=O)Nc2ccc(Cl)cc2F)C(=O)N[C@@H]2C(=O)N3CCC[C@H]3C(=O)N3CCS(=O)(=O)C[C@H]3C(=O)N[C@@H](C)C(=O)N3C[C@H](C)C[C@H]3C(=O)O[C@H]2C)c1 [Compound 40, (S)-2-(3-(4-CHLORO-2-FLUOROPHENYL)UREIDO)-3-(M-TOLYL)-N-((6AS,12S,13S,15AS,17R,21S,23AR)-13,17,21-TRIMETHYL-2,2-DIOXIDO-6,11,15,20,23-PENTAOXOOCTADECAHYDRO-6H,11H,15H-DIPYRROLO[2,1-C:2′,1′-L][1,4]THIAZINO[3,4-I][1]OXA[4,7,10,13]TETRAAZACYCLOHEXADECIN-12-YL)PROPANAMIDE] ({NH(4-Cl-2-F-phenyl)-CO}-[Phe(3-Me)][aThr]P[X6]A[Pro(4R-Me)]; ester 2-C) | >50 h | >50 h | 98.5 ± 8.5% | 99.4 ± 9.4% | 0.625 µM (≈ 0.546 µg/mL) | 0.625 µM (≈ 0.546 µg/mL) | 1.25 µM (≈ 1.09 µg/mL) | 1.25 µM (≈ 1.09 µg/mL) |  |  |  |  |  |  |  | 
4 | Cc1cccc(C[C@H](NC(=O)Nc2ccc(Cl)cc2F)C(=O)N[C@@H]2C(=O)N3C[C@H](O)C[C@H]3C(=O)N3CCSC[C@H]3C(=O)N[C@@H](C)C(=O)N3C[C@H](C)C[C@H]3C(=O)O[C@H]2C)c1 [Compound 41, (S)-2-(3-(4-CHLORO-2-FLUOROPHENYL)UREIDO)-N-((6AS,8R,12S,13S,15AS,17R,21S,23AR)-8-HYDROXY-13,17,21-TRIMETHYL-6,11,15,20,23-PENTAOXOOCTADECAHYDRO-6H,11H,15H-DIPYRROLO[2,1-C:2′,1′-L][1,4]THIAZINO[3,4-I][1]OXA[4,7,10,13]TETRAAZACYCLOHEXADECIN-12-YL)-3-(M-TOLYL)PROPANAMIDE] ({NH(4-Cl-2-F-phenyl)-CO}-[Phe(3-Me)][aThr][Hyp][X1]A[Pro(4R-Me)]; ester 2-C) | >50 h | >50 h | 99.7 ± 9.7% | 99.9 ± 9.9% | 0.625 µM (≈ 0.536 µg/mL) | 0.156 µM (≈ 0.134 µg/mL) | 0.31 µM (≈ 0.266 µg/mL) | 0.31 µM (≈ 0.266 µg/mL) |  |  |  |  |  |  |  | 
5 | Cc1ccc(NC(=O)N[C@@H](Cc2cccc(C)c2)C(=O)N[C@@H]2C(=O)N3C[C@H](O)C[C@H]3C(=O)N3CCSC[C@H]3C(=O)N[C@@H](C)C(=O)N3C[C@H](C)C[C@H]3C(=O)O[C@H]2C)cc1 [Compound 42, (S)—N-((6AS,8R,12S,13S,15AS,17R,21S,23AR)-8-HYDROXY-13,17,21-TRIMETHYL-6,11,15,20,23-PENTAOXOOCTADECAHYDRO-6H,11H,15H-DIPYRROLO[2,1-C:2′,1′-L][1,4]THIAZINO[3,4-I][1]OXA[4,7,10,13]TETRAAZACYCLOHEXADECIN-12-YL)-3-(M-TOLYL)-2-(3-(P-TOLYL)UREIDO)PROPANAMIDE] ({NH(4-Me-phenyl)-CO}-[Phe(3-Me)][aThr][Hyp][X1]A[Pro(4R-Me)]; ester 2-C) |  |  |  |  |  |  |  |  | >50 h | >50 h | 98.1 ± 8.1% | 97.4 ± 7.4% | 2.5 µM (≈ 2.05 µg/mL) | 1.25 µM (≈ 1.02 µg/mL) | 1.25 µM (≈ 1.02 µg/mL) | 2.5 µM (≈ 2.05 µg/mL)
6 | Cc1ccc(NC(=O)N[C@@H](Cc2cccc(C)c2)C(=O)N[C@@H]2C(=O)N3CCC[C@H]3C(=O)N3CCCC[C@H]3C(=O)N[C@@H](C)C(=O)N3C[C@@H](C)C[C@H]3C(=O)O[C@H]2C)cc1 [Compound 45, (S)-3-(M-TOLYL)-2-(3-(P-TOLYL)UREIDO)-N-((2S,6S,8AS,14AS,20S,21S,23AS)-2,6,21-TRIMETHYL-5,8,14,19,23-PENTAOXOOCTADECAHYDRO-1H,5H,14H,19H-PYRIDO[2,1-I]DIPYRROLO[2,1-C:2′,1′-L][1]OXA[4,7,10,13]TETRAAZACYCLOHEXADECIN-20-YL)PROPANAMIDE] ({NH(4-Me-phenyl)-CO}-[Phe(3-Me)][aThr]P[Pip]A[Pro(4S-Me)]; ester 2-C) |  |  |  |  |  |  |  |  | >50 h | >50 h | 97.3 ± 0.3% | 92.1 ± 1.3% | 1.25 µM (≈ 0.982 µg/mL) | 1.25 µM (≈ 0.982 µg/mL) | 1.25 µM (≈ 0.982 µg/mL) | 10 µM (≈ 7.86 µg/mL)
7 | Cc1cccc(C[C@H](NC(=O)Nc2ccc(Cl)cc2F)C(=O)N[C@@H]2C(=O)N3C[C@H](OC(=O)CCN(C)C)C[C@H]3C(=O)N3CCCC[C@H]3C(=O)N[C@@H](C)C(=O)N3C[C@H](C)C[C@H]3C(=O)O[C@H]2C)c1 [Compound 46, (2R,6S,8AS,14AS,16R,20S,21S,23AS)-20-((S)-2-(3-(4-CHLORO-2-FLUOROPHENYL)UREIDO)-3-(M-TOLYL)PROPANAMIDO)-2,6,21-TRIMETHYL-5,8,14,19,23-PENTAOXOOCTADECAHYDRO-1H,5H,14H,19H-PYRIDO[2,1-I]DIPYRROLO[2,1-C:2′,1′-L][1]OXA[4,7,10,13]TETRAAZACYCLOHEXADECIN-16-YL 3-(DIMETHYLAMINO)PROPANOATE] ({NH(4-Cl-2-F-phenyl)-CO}-[Phe(3-Me)][aThr][Hyp](Propanoyl(3-NMe2))[Pip]A[Pro(4R-Me)]; ester 2-C) | 0.49 h | 0.57 h | 99.5 ± 0.3% | 93.0 ± 0.8% | 0.156 µM (≈ 0.147 µg/mL) | 0.313 µM (≈ 0.294 µg/mL) | 0.313 µM (≈ 0.294 µg/mL) | 0.313 µM (≈ 0.294 µg/mL) |  |  |  |  |  |  |  | 
